Values of other authors in patent publication US20150005255A1, “COSMETIC COMPOSITION, FORMULATION IN GEL-CREAM AND ITS USE” (EMS S.A., priority 2013, published 2015).

Columns and labels:
lysosomal enzymes = conditions: in skin care products

Substance	reduction of lysosomal activity (lysosomal enzymes)	volume of observed areas with cellulite (localized lipodystrophy; formula of Xantalgosil C applied twice daily for one month, 25 volunteers)	activation of adipocyte lipolysis (localized lipodystrophy; in vivo)
Escin	up to 30%		
acefylline methylsilanol mannuronate [Xantalgosil C]		reduction of volume in observed areas	outstanding action
